Measured values as given in PMC9299836 (eLife, 2022).

Molecular target: mGluR2 (Mus musculus, UniProt Q14BI2, A548F)
Assay: smFRET of azi-CRD: cross-correlation of donor and acceptor intensities (CRD dynamics) and HMM transition density plots;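 note: single detergent-solubilized receptors captured on antibody-coated flow cells via C-terminal FLAG-tag, imaged by smFRET, donor and acceptor intensity traces from three independent biological replicates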

Sequence of mGluR2 (Q14BI2 19-872 A548F): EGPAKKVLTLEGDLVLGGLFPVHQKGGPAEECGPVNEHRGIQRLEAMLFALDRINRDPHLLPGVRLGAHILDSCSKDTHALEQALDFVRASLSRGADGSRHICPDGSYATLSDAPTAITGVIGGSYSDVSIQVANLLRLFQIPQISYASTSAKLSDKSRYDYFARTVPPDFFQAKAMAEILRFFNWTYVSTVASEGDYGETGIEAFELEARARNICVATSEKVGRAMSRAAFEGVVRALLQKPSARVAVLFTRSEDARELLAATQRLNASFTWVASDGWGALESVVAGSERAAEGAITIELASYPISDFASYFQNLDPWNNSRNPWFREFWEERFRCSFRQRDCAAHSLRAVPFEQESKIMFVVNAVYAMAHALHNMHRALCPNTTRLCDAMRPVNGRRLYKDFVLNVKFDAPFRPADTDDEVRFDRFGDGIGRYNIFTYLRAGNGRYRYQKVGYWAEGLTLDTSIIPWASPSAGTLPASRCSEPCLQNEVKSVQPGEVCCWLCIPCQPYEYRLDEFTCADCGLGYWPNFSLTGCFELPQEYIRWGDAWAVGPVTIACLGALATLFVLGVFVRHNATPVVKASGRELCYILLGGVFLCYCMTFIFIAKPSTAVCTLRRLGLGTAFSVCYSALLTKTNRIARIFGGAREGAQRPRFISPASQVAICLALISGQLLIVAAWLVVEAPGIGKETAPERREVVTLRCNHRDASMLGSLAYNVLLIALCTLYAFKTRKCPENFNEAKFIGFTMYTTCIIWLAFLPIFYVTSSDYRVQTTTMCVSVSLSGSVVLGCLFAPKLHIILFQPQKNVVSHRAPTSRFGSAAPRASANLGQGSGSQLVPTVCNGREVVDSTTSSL

For Cc1c(OCc2cccc(-c3ccc(C(=O)O)cc3)c2)cc2c(c1C)C(=O)C(C1CCCC1)C2 (centres unmarked) [BINA], the “Cross Correlation, Mean” value (0μM Glutamate + GPT/Pyruvate + 10μM BINA, Time 0 s, N 3) was -0.309, the “Cross Correlation, Mean” value (0μM Glutamate + GPT/Pyruvate + 10μM BINA, Time 0.05 s, N 3) was -0.1732 and the “Cross Correlation, Mean” value (0μM Glutamate + GPT/Pyruvate + 10μM BINA, Time 0.1 s, N 3) was -0.1405. The “Cross Correlation, Mean” value (0μM Glutamate + GPT/Pyruvate + 10μM BINA, Time 0.15 s, N 3) was -0.1268, the “Cross Correlation, Mean” value (0μM Glutamate + GPT/Pyruvate + 10μM BINA, Time 0.2 s, N 3) was -0.1138 and the “Cross Correlation, Mean” value (0μM Glutamate + GPT/Pyruvate + 10μM BINA, Time 0.25 s, N 3) was -0.1079. The “Cross Correlation, Mean” value (0μM Glutamate + GPT/Pyruvate + 10μM BINA, Time 0.3 s, N 3) was -0.1007, the “Cross Correlation, Mean” value (0μM Glutamate + GPT/Pyruvate + 10μM BINA, Time 0.35 s, N 3) was -0.09667 and the “Cross Correlation, Mean” value (0μM Glutamate + GPT/Pyruvate + 10μM BINA, Time 0.4 s, N 3) was -0.08889. The “Cross Correlation, Mean” value (0μM Glutamate + GPT/Pyruvate + 10μM BINA, Time 0.45 s, N 3) was -0.08933, the “Cross Correlation, Mean” value (0μM Glutamate + GPT/Pyruvate + 10μM BINA, Time 0.5 s, N 3) was -0.08286 and the “Cross Correlation, Mean” value (0μM Glutamate + GPT/Pyruvate + 10μM BINA, Time 0.55 s, N 3) was -0.07956. The “Cross Correlation, Mean” value (0μM Glutamate + GPT/Pyruvate + 10μM BINA, Time 0.6 s, N 3) was -0.07731, the “Cross Correlation, Mean” value (0μM Glutamate + GPT/Pyruvate + 10μM BINA, Time 0.65 s, N 3) was -0.07407 and the “Cross Correlation, Mean” value (0μM Glutamate + GPT/Pyruvate + 10μM BINA, Time 0.7 s, N 3) was -0.07365. For the same molecule, the “Cross Correlation, Mean” value (0μM Glutamate + GPT/Pyruvate + 10μM BINA, Time 0.75 s, N 3) was -0.06697, the “Cross Correlation, Mean” value (0μM Glutamate + GPT/Pyruvate + 10μM BINA, Time 0.8 s, N 3) was -0.06199 and the “Cross Correlation, Mean” value (0μM Glutamate + GPT/Pyruvate + 10μM BINA, Time 0.85 s, N 3) was -0.06042. For the same molecule, the “Cross Correlation, Mean” value (0μM Glutamate + GPT/Pyruvate + 10μM BINA, Time 0.9 s, N 3) was -0.05216, the “Cross Correlation, Mean” value (0μM Glutamate + GPT/Pyruvate + 10μM BINA, Time 0.95 s, N 3) was -0.05689 and the “Cross Correlation, Mean” value (0μM Glutamate + GPT/Pyruvate + 10μM BINA, Time 1 s, N 3) was -0.0539. The “Cross Correlation, Mean” value (0μM Glutamate + GPT/Pyruvate + 10μM BINA, Time 1.05 s, N 3) was -0.05356, the “Cross Correlation, Mean” value (0μM Glutamate + GPT/Pyruvate + 10μM BINA, Time 1.1 s, N 3) was -0.0518 and the “Cross Correlation, Mean” value (0μM Glutamate + GPT/Pyruvate + 10μM BINA, Time 1.15 s, N 3) was -0.0477. For the same molecule, the “Cross Correlation, Mean” value (0μM Glutamate + GPT/Pyruvate + 10μM BINA, Time 1.2 s, N 3) was -0.04715, the “Cross Correlation, Mean” value (0μM Glutamate + GPT/Pyruvate + 10μM BINA, Time 1.25 s, N 3) was -0.04267 and the “Cross Correlation, Mean” value (0μM Glutamate + GPT/Pyruvate + 10μM BINA, Time 1.3 s, N 3) was -0.04926. For the same molecule, the “Cross Correlation, Mean” value (0μM Glutamate + GPT/Pyruvate + 10μM BINA, Time 1.35 s, N 3) was -0.04133, the “Cross Correlation, Mean” value (0μM Glutamate + GPT/Pyruvate + 10μM BINA, Time 1.4 s, N 3) was -0.03906 and the “Cross Correlation, Mean” value (0μM Glutamate + GPT/Pyruvate + 10μM BINA, Time 1.45 s, N 3) was -0.0385. The “Cross Correlation, Mean” value (0μM Glutamate + GPT/Pyruvate + 10μM BINA, Time 1.5 s, N 3) was -0.035, the “Cross Correlation, Mean” value (0μM Glutamate + GPT/Pyruvate + 10μM BINA, Time 1.55 s, N 3) was -0.03506 and the “Cross Correlation, Mean” value (0μM Glutamate + GPT/Pyruvate + 10μM BINA, Time 1.6 s, N 3) was -0.03291. The “Cross Correlation, Mean” value (0μM Glutamate + GPT/Pyruvate + 10μM BINA, Time 1.65 s, N 3) was -0.03291, the “Cross Correlation, Mean” value (0μM Glutamate + GPT/Pyruvate + 10μM BINA, Time 1.7 s, N 3) was -0.03331 and the “Cross Correlation, Mean” value (0μM Glutamate + GPT/Pyruvate + 10μM BINA, Time 1.75 s, N 3) was -0.03095. The “Cross Correlation, Mean” value (0μM Glutamate + GPT/Pyruvate + 10μM BINA, Time 1.8 s, N 3) was -0.02869, the “Cross Correlation, Mean” value (0μM Glutamate + GPT/Pyruvate + 10μM BINA, Time 1.85 s, N 3) was -0.03476 and the “Cross Correlation, Mean” value (0μM Glutamate + GPT/Pyruvate + 10μM BINA, Time 1.9 s, N 3) was -0.02485. For the same molecule, the “Cross Correlation, Mean” value (0μM Glutamate + GPT/Pyruvate + 10μM BINA, Time 1.95 s, N 3) was -0.02573, the “Cross Correlation, Mean” value (0μM Glutamate + GPT/Pyruvate + 10μM BINA, Time 2 s, N 3) was -0.0316 and the “Cross Correlation, Mean” value (0μM Glutamate + GPT/Pyruvate + 10μM BINA, Time 2.05 s, N 3) was -0.03349. For the same molecule, the “Cross Correlation, Mean” value (0μM Glutamate + GPT/Pyruvate + 10μM BINA, Time 2.1 s, N 3) was -0.02361, the “Cross Correlation, Mean” value (0μM Glutamate + GPT/Pyruvate + 10μM BINA, Time 2.15 s, N 3) was -0.02192 and the “Cross Correlation, Mean” value (0μM Glutamate + GPT/Pyruvate + 10μM BINA, Time 2.2 s, N 3) was -0.02164. For the same molecule, the “Cross Correlation, Mean” value (0μM Glutamate + GPT/Pyruvate + 10μM BINA, Time 2.25 s, N 3) was -0.01683, the “Cross Correlation, Mean” value (0μM Glutamate + GPT/Pyruvate + 10μM BINA, Time 2.3 s, N 3) was -0.01949 and the “Cross Correlation, Mean” value (0μM Glutamate + GPT/Pyruvate + 10μM BINA, Time 2.35 s, N 3) was -0.01229. For the same molecule, the “Cross Correlation, Mean” value (0μM Glutamate + GPT/Pyruvate + 10μM BINA, Time 2.4 s, N 3) was -0.01405, the “Cross Correlation, Mean” value (0μM Glutamate + GPT/Pyruvate + 10μM BINA, Time 2.45 s, N 3) was -0.01492 and the “Cross Correlation, Mean” value (0μM Glutamate + GPT/Pyruvate + 10μM BINA, Time 2.5 s, N 3) was -0.01729. For the same molecule, the “Cross Correlation, Mean” value (0μM Glutamate + GPT/Pyruvate + 10μM BINA, Time 2.55 s, N 3) was -0.01573, the “Cross Correlation, Mean” value (0μM Glutamate + GPT/Pyruvate + 10μM BINA, Time 2.6 s, N 3) was -0.01304 and the “Cross Correlation, Mean” value (0μM Glutamate + GPT/Pyruvate + 10μM BINA, Time 2.65 s, N 3) was -0.01522. For the same molecule, the “Cross Correlation, Mean” value (0μM Glutamate + GPT/Pyruvate + 10μM BINA, Time 2.7 s, N 3) was -0.01589, the “Cross Correlation, Mean” value (0μM Glutamate + GPT/Pyruvate + 10μM BINA, Time 2.75 s, N 3) was -0.00863 and the “Cross Correlation, Mean” value (0μM Glutamate + GPT/Pyruvate + 10μM BINA, Time 2.8 s, N 3) was -0.00835. For the same molecule, the “Cross Correlation, Mean” value (0μM Glutamate + GPT/Pyruvate + 10μM BINA, Time 2.85 s, N 3) was -0.01318, the “Cross Correlation, Mean” value (0μM Glutamate + GPT/Pyruvate + 10μM BINA, Time 2.9 s, N 3) was -0.01103 and the “Cross Correlation, Mean” value (0μM Glutamate + GPT/Pyruvate + 10μM BINA, Time 2.95 s, N 3) was -0.01389. For the same molecule, the “Cross Correlation, Mean” value (Time 0.2 s, 1000μM Glutamate + 10μM BINA, N=3) was -0.07372, the “Cross Correlation, Mean” value (Time 0.25 s, 1000μM Glutamate + 10μM BINA, N=3) was -0.0658 and the “Cross Correlation, Mean” value (Time 0.3 s, 1000μM Glutamate + 10μM BINA, N=3) was -0.06773. The “Cross Correlation, Mean” value (Time 0.35 s, 1000μM Glutamate + 10μM BINA, N=3) was -0.06255, the “Cross Correlation, Mean” value (Time 0.4 s, 1000μM Glutamate + 10μM BINA, N=3) was -0.05489 and the “Cross Correlation, Mean” value (Time 0.45 s, 1000μM Glutamate + 10μM BINA, N=3) was -0.05062. The “Cross Correlation, Mean” value (Time 0.5 s, 1000μM Glutamate + 10μM BINA, N=3) was -0.04608, the “Cross Correlation, Mean” value (Time 0.55 s, 1000μM Glutamate + 10μM BINA, N=3) was -0.05414 and the “Cross Correlation, Mean” value (Time 0.6 s, 1000μM Glutamate + 10μM BINA, N=3) was -0.0452. For the same molecule, the “Cross Correlation, Mean” value (Time 0.65 s, 1000μM Glutamate + 10μM BINA, N=3) was -0.04488, the “Cross Correlation, Mean” value (Time 0.7 s, 1000μM Glutamate + 10μM BINA, N=3) was -0.04657 and the “Cross Correlation, Mean” value (Time 0.75 s, 1000μM Glutamate + 10μM BINA, N=3) was -0.03909. The “Cross Correlation, Mean” value (Time 0.8 s, 1000μM Glutamate + 10μM BINA, N=3) was -0.03858, the “Cross Correlation, Mean” value (Time 0.85 s, 1000μM Glutamate + 10μM BINA, N=3) was -0.03795 and the “Cross Correlation, Mean” value (Time 0.9 s, 1000μM Glutamate + 10μM BINA, N=3) was -0.04083. For the same molecule, the “Cross Correlation, Mean” value (Time 0.95 s, 1000μM Glutamate + 10μM BINA, N=3) was -0.04226, the “Cross Correlation, Mean” value (Time 1 s, 1000μM Glutamate + 10μM BINA, N=3) was -0.03681 and the “Cross Correlation, Mean” value (Time 1.05 s, 1000μM Glutamate + 10μM BINA, N=3) was -0.03546. The “Cross Correlation, Mean” value (Time 1.1 s, 1000μM Glutamate + 10μM BINA, N=3) was -0.03003, the “Cross Correlation, Mean” value (Time 1.15 s, 1000μM Glutamate + 10μM BINA, N=3) was -0.02551 and the “Cross Correlation, Mean” value (Time 1.2 s, 1000μM Glutamate + 10μM BINA, N=3) was -0.0316. For the same molecule, the “Cross Correlation, Mean” value (Time 1.25 s, 1000μM Glutamate + 10μM BINA, N=3) was -0.02716, the “Cross Correlation, Mean” value (Time 1.3 s, 1000μM Glutamate + 10μM BINA, N=3) was -0.03167 and the “Cross Correlation, Mean” value (Time 1.35 s, 1000μM Glutamate + 10μM BINA, N=3) was -0.03105. The “Cross Correlation, Mean” value (Time 1.4 s, 1000μM Glutamate + 10μM BINA, N=3) was -0.03283, the “Cross Correlation, Mean” value (Time 1.45 s, 1000μM Glutamate + 10μM BINA, N=3) was -0.03008 and the “Cross Correlation, Mean” value (Time 1.5 s, 1000μM Glutamate + 10μM BINA, N=3) was -0.02156. For the same molecule, the “Cross Correlation, Mean” value (Time 1.55 s, 1000μM Glutamate + 10μM BINA, N=3) was -0.02279, the “Cross Correlation, Mean” value (Time 1.6 s, 1000μM Glutamate + 10μM BINA, N=3) was -0.0244 and the “Cross Correlation, Mean” value (Time 1.65 s, 1000μM Glutamate + 10μM BINA, N=3) was -0.02489. The “Cross Correlation, Mean” value (Time 1.7 s, 1000μM Glutamate + 10μM BINA, N=3) was -0.02216, the “Cross Correlation, Mean” value (Time 1.75 s, 1000μM Glutamate + 10μM BINA, N=3) was -0.02536 and the “Cross Correlation, Mean” value (Time 1.8 s, 1000μM Glutamate + 10μM BINA, N=3) was -0.02663. The “Cross Correlation, Mean” value (Time 1.85 s, 1000μM Glutamate + 10μM BINA, N=3) was -0.0191, the “Cross Correlation, Mean” value (Time 1.9 s, 1000μM Glutamate + 10μM BINA, N=3) was -0.02267 and the “Cross Correlation, Mean” value (Time 1.95 s, 1000μM Glutamate + 10μM BINA, N=3) was -0.02058. The “Cross Correlation, Mean” value (Time 2 s, 1000μM Glutamate + 10μM BINA, N=3) was -0.01998, the “Cross Correlation, Mean” value (Time 2.05 s, 1000μM Glutamate + 10μM BINA, N=3) was -0.02099 and the “Cross Correlation, Mean” value (Time 2.1 s, 1000μM Glutamate + 10μM BINA, N=3) was -0.01699. The “Cross Correlation, Mean” value (Time 2.15 s, 1000μM Glutamate + 10μM BINA, N=3) was -0.01762 and the “CRD dynamics by cross-correlation of donor and acceptor intensities” value (azi-CRD, 10 μM modulator, absence of glutamate) was “increased receptor dynamics”.
